Experimental data from publication PMC7880688, “Hormone-sensitive lipase couples intergenerational sterol metabolism to reproductive success” (eLife, 2021).

Tests used:
Assay type in all cases: biochemical
His6-MmHsl (murine Hsl) [1] = target: T1, His6-MmHsl (murine Hsl) (Mus musculus, UniProt P54310); assay: colorimetric free fatty acid release (NEFA kit); conditions: 0.3 mM substrate emulsified with PC/PI, 2% BSA, BTP buffer pH 7.5, 37°C, 30-60 min
T1 construct: gene Lipe; N-terminal His6 tag kept, COS-7 cell extract; plasmid described previously (Lass et al., 2006)
T1 sequence (P54310 1-759): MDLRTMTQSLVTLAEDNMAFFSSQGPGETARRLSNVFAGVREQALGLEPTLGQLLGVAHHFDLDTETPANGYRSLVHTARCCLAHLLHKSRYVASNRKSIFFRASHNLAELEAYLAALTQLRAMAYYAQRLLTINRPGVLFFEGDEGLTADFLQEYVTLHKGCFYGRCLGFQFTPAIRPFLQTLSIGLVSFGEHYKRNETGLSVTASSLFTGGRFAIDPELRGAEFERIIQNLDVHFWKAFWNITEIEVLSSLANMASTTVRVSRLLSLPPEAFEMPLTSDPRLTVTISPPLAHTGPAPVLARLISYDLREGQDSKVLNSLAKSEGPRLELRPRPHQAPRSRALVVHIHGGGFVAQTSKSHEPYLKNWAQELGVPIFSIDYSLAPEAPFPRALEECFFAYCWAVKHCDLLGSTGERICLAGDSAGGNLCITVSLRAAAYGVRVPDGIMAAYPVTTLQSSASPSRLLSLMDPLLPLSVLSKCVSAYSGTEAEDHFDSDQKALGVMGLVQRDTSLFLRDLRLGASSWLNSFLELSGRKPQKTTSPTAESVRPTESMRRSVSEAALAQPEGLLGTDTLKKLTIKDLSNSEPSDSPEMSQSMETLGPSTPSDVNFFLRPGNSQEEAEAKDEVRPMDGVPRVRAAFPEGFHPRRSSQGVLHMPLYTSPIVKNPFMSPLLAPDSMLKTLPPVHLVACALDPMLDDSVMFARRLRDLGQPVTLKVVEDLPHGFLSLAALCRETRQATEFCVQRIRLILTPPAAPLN

[2] = target: T2, His6-Hsl (Drosophila Hsl) (Drosophila melanogaster, UniProt A4UZQ8); assay: colorimetric free fatty acid release (NEFA kit); conditions: 0.3 mM substrate emulsified with PC/PI, 2% BSA, BTP buffer pH 7.5, 37°C, 30-60 min
T2 construct: Hsl open reading frame from cDNA RE52776 in pcDNA4/HisMax C, N-terminal His6 tag kept, COS-7 cell extract
T2 sequence (A4UZQ8 2-881): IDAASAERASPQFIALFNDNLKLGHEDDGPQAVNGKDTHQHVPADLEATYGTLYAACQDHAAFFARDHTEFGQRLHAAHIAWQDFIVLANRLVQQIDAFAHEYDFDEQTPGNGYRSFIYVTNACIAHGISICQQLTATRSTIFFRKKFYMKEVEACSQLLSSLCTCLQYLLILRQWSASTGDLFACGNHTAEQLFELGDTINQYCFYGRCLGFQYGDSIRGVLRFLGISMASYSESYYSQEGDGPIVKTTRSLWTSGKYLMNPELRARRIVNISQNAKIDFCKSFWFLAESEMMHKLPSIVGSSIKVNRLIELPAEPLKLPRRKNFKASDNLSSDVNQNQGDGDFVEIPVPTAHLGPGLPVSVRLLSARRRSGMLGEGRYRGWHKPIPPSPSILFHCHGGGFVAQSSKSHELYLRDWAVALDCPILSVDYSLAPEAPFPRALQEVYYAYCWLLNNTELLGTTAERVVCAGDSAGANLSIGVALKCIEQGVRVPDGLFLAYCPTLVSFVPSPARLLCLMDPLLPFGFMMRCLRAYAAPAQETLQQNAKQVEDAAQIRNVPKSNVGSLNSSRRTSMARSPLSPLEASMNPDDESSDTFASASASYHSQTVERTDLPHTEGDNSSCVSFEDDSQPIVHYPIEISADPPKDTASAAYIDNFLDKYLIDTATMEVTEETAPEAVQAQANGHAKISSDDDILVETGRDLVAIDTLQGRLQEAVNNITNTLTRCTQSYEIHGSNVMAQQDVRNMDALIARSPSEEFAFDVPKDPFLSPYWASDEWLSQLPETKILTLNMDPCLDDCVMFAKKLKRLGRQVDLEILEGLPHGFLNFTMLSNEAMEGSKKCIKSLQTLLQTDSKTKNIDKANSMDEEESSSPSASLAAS

[3] = target: T2, His6-Hsl (Drosophila Hsl); assay: release of labelled fatty acid, scintillation counting; conditions: 0.45 mM substrate emulsified with PC/PI, 5% BSA, BTP buffer pH 7.5, 37°C, 60 min; labelled compound (14C-cholesteryl oleate tracer)
His6-MmHsl (murine Hsl) [4] = target: T1, His6-MmHsl (murine Hsl); assay: as above; conditions: 0.45 mM substrate emulsified with PC/PI, 5% BSA, BTP buffer pH 7.5, 37°C, 60 min; labelled compound (14C-cholesteryl oleate tracer)

Compound | colorimetric free fatty acid release (NEFA kit) (His6-MmHsl (murine Hsl) [1]) | colorimetric free fatty acid release (NEFA kit) [2] | release of labelled fatty acid, scintillation counting [3] | release of labelled fatty acid, scintillation counting (His6-MmHsl (murine Hsl) [4])
CCCCCCCC/C=C\CCCCCCCC(=O)OCC(CO)OC(=O)CCCCCCC/C=C\CCCCCCCC (racemic) [DG 36:2, 1,2-dioleoyl-rac-glycerol] | Expression of His6-MmHsl increased cellular hydrolysis rates toward monoacylglycerol (MG), DG, TG, and SE | Expression of fly His6-Hsl elevated cellular hydrolysis rates toward MG, DG, TG, and SE |  | 
CCCCCCCC/C=C\CCCCCCCC(=O)O[C@H]1CC[C@@]2(C)C(=CC[C@H]3[C@@H]4CC[C@H]([C@H](C)CCCC(C)C)[C@@]4(C)CC[C@@H]32)C1 [CE 18:1, cholesteryl oleate] |  |  | Expression of fly His6-Hsl elevated cellular hydrolysis rates toward MG, DG, TG, and SE | Expression of His6-MmHsl increased cellular hydrolysis rates toward monoacylglycerol (MG), DG, TG, and SE
